Laboratory results published in patent publication US20090170880A1, “Methods and Means for the Treatment of Cancer” (priority 2007, published 2009).
Like-named read-outs stand apart in the source and are kept apart here.

Columns and labels:
murine P-gp (Mdr1a) = target: T1, murine P-gp (Mdr1a) (Mus musculus, UniProt P21447); assay: Transwell transport of temozolomide, LLC-Mdr1a cells; format: in vitro ADME; settings: 40 μg/ml, LLC-Mdr1a versus LLC-PK1 monolayers
T1 construct: expressed in transfected cells; host or cells: LLC-PK1 (porcine kidney) cells transduced with murine Mdr1a
T1 sequence (P21447 whole entry): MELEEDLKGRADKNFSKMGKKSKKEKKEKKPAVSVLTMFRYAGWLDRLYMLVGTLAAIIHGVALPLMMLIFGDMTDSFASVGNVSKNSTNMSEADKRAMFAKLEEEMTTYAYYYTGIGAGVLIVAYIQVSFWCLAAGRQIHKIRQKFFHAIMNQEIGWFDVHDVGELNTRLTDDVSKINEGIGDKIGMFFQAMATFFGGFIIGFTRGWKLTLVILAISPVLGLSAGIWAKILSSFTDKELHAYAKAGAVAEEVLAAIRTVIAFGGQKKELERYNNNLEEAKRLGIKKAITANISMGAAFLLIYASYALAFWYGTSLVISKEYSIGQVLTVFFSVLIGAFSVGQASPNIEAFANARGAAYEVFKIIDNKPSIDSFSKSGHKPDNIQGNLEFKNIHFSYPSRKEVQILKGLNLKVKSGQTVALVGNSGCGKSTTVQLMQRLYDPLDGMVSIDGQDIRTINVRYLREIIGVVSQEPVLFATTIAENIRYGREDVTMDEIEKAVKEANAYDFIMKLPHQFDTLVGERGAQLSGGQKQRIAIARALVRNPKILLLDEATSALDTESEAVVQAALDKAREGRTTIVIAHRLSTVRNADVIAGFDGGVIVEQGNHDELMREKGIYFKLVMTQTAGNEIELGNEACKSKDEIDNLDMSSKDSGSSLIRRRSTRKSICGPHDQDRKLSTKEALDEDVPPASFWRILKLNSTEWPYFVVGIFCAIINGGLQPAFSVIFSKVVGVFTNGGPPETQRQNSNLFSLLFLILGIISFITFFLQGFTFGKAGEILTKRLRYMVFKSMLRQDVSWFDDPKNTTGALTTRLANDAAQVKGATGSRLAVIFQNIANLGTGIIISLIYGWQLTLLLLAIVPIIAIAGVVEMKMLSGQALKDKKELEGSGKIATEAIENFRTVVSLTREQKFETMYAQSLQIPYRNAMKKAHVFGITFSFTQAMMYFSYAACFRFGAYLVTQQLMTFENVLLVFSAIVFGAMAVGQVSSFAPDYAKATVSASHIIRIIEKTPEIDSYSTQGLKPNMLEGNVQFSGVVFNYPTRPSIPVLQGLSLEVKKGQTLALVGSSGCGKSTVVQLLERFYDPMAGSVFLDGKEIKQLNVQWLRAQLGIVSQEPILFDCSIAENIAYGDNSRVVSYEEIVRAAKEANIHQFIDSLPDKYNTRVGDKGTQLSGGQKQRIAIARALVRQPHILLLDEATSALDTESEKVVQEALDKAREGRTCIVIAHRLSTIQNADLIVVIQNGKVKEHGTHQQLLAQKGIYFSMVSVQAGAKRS
Method: (§1) The parental LLC pig-kidney (PK1) cell line and sublines transduced with murine Mdr1a or human MDR1 (12) and the parental Madine Darby Canine Kidney (MDCK) and murine Bcrp1 or human BCRP transduced sublines (13) were seeded on Transwell microporous polycarbonate membrane filters (3.0 μm pore size, 24 mm diameter; Costar Corning, N.Y., USA) at a density of 1×10^6 cells per well in 2 ml of MEM medium (Invitrogen Corporation, Carlsbad, Calif.) containing 10% v/v fetal calf serum. Cells were incubated at 37° C. in 5% CO2 for three days with one medium replacement after the first day. Two hours before the start of the experiment the medium in both compartments was replaced with 2 ml of OptiMEM medium (InVitrogen Corp.). At the start of the experiment the medium in the apical or basolateral compartment was replaced with 2 ml of freshly prepared OptiMEM medium containing 40 μg/ml of temozolomide. […] Zosuquidar (LY335979, 5 μM) was always added to the medium when doing experiments with MDCK cell lines to inhibit endogenous canine P-gp. Samples of 50 μl were collected every 30 min, for up to 2 h after start of the experiment. Because temozolomide is instable in medium at 37° C., we replaced one ml of the donor compartment by a freshly prepared aliquot every 30 min. […]

U87 = assay: Antitumor response against U87 tumor; format: in vivo; settings: one single dose of 25 mg/kg, results not shown
[1] = Plasma exposure of oral temozolomide in mice; format: in vivo; settings: mouse, 100 mg/kg, read-out: AUC0-7 h, plasma
Method: We also established the drug exposure in wild-type (n=18) and Bcrp1/Mdr1ab knockout mice (n=19) receiving an oral dose of 100 mg/kg by gavage. Blood was sampled from the tail at 15, 30 min and 1, 4 and 7 h post drug administration to obtain a full curve from each animal.
(§2) Plasma and brain AUC0-7h values and standard errors were calculated by the linear trapezoidal rule using standard equations (14). The plasma half-life of temozolomide was calculated by linear regression analysis after log transformation of the concentration data using Microsoft Excel 2003. The brain-to-plasma ratio was calculated for each individual animal. The two-sided unpaired Student's t-test was used for statistical analysis of AUC values. Bonferroni's test for multiple comparisons was calculated using SPSS (v12.0.1; SPSS Inc, Chicago, Ill., USA) for brain and plasma levels and brain-to-plasma ratios determined at 2 h post temozolomide administration with the inhibitors and for analyzing the results of the in vivo efficacy study.

[2] = Brain penetration study, temozolomide i.v. in wild-type and knockout mice; format: in vivo; settings: for AUC(0-t): 50 mg/kg, read-out: AUC0-7 h plasma
Method: Based on previous work by Kim et al (11) we have developed a high-performance liquid chromatographic assay for the determination for quantification of temozolomide in medium used for transwell experiments and in mouse plasma and brain tissue homogenates for in vivo pharmacokinetic studies. Separation/quantification was achieved using a Symmetry® C18 column (150×2.0 mm; ID) together with a mobile phase of 7.5% of methanol in 0.5% acetic acid in water, delivered at a flow rate of 0.2 ml/min and UV detection at 330 nm ((PDA996 photodiode array detector; Waters, Milford, Mass., USA or SF 757 detector; Kratos, Ramsey, N.J., USA). Medium from transwell experiments was 10-fold diluted with 0.2% acetic acid in water and 50 μl was injected directly into the HPLC system. Temozolomide was extracted from the acidified plasma and brain tissue homogenate samples (200 μl) with 1.0 ml ethyl acetate. The dried extracts were subsequently dissolved in 100 μl of 5% methanol in 0.2% acetic acid in water and 50 μl was injected into the HPLC system. External calibration was performed since no internal standard was available. The lower and upper limit of quantitation was 0.020 and 10.0 μg/ml, respectively. Samples above the upper limit of quantification were first diluted with acidified blank human plasma. All samples from in vivo studies were analyzed in duplicate in 2 independent analytical series and repeated once more when the results differed by more than 10%.
The brain penetration study comprised cohorts of animals receiving temozolomide (50 mg/kg) by intravenous injection in the tail vein. Each cohort consisted of at least 40 animals in which at least 6 animals were used per time point (t=15 min, 1, 2, 4 and 7 hours post temozolomide administration). […] The mice were anesthetized with metoxyflurane and blood samples were obtained by cardiac puncture and collected on ice in tubes containing potassium EDTA as anticoagulant. The tubes were placed in melting ice, centrifuged within 60 min (10 min, 5000 g, 4° C.) to separate the plasma fraction, which was transferred into clean vials, mixed with 1 M hydrochloric acid (10+1; v/v) and stored at −20° C. until analysis. Immediately after cardiac puncture the mice were killed by cervical dislocation and the brains were dissected and placed on ice. Within 60 min they were weighed and homogenized in 3 ml of ice-cold 1% of BSA in 0.05 M phosphate buffer adjusted to pH 2 and stored at −20° C. until further analysis.
as §2

[3] = Transwell experiments, recovery of temozolomide in acceptor compartment; format: in vitro ADME; settings: after 30 min, transport medium pH 7.4
Method: as §1

[4] = system: recurrent grade 3 and grade 4 gliomas, GBM; settings: cited from earlier work
human P-gp (MDR1) = target: T2, human P-gp (MDR1) (Homo sapiens, UniProt P08183); assay: Transwell transport of temozolomide, LLC-MDR1 cells; format: in vitro ADME; settings: 40 μg/ml, LLC-MDR1 versus LLC-PK1 monolayers
T2 construct: expressed in transfected cells; host or cells: LLC-PK1 (porcine kidney) cells transduced with human MDR1
T2 sequence (P08183 whole entry): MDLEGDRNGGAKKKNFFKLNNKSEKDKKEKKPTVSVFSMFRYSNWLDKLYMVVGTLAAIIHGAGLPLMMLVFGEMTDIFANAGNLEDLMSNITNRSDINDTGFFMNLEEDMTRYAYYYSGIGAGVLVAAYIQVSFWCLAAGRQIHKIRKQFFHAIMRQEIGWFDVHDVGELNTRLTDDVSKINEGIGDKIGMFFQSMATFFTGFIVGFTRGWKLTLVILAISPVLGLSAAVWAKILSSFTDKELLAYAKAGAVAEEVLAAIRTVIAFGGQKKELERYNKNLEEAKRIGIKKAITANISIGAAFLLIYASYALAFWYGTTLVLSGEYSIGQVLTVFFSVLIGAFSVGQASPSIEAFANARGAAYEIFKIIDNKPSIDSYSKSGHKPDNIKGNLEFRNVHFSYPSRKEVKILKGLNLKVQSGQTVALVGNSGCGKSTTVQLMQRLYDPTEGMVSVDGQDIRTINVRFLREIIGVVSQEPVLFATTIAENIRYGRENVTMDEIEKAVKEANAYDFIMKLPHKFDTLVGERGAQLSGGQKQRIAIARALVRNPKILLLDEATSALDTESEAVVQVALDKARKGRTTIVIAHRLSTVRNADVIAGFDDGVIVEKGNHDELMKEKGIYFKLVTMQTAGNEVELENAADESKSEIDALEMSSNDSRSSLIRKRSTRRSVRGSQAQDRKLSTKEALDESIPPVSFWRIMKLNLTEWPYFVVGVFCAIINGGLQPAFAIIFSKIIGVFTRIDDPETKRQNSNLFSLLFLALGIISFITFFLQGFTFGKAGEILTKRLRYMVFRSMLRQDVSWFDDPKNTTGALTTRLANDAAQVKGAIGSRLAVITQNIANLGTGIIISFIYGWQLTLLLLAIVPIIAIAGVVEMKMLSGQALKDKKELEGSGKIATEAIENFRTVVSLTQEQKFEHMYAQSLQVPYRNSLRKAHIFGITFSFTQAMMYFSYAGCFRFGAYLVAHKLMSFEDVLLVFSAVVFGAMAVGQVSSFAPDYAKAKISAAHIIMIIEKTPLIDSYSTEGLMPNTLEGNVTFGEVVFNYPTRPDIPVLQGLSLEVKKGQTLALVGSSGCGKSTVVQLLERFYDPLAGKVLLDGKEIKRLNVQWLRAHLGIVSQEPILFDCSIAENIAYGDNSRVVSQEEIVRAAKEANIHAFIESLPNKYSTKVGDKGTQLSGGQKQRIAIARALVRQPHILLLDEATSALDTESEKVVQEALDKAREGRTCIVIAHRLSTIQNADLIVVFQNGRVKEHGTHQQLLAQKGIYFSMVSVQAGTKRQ
Method: as §1

[5] = Bcrp1 knockout mice, i.v. 50 mg/kg
[6] = Bcrp, Mdr1ab knockout mice, i.v. 50 mg/kg
[7] = Mdr1ab knockout mice, i.v. 50 mg/kg

With `Cn1nnc2c(C(N)=O)ncn2c1=O` [temozolomide, 8-carbamoyl-3-methyl-[3H]-imidazo[5,1-d]-1,2,3,5-tetrazin-4-one] the “transport of temozolomide by murine P-gp” value (murine P-gp (Mdr1a)) was “very limited if any evidence for transport”, the “transport of temozolomide by murine P-gp” value (murine P-gp (Mdr1a); listed as Temozolomide) was “not readily detected” and the antitumor response (U87) was “significant antitumor response”. The AUC(0-t) ([1]; Bcrp, Mdr1ab knockout mice) was 164 ± 4.5 µg·h/mL, the AUC(0-t) ([1]; Wild-type mice) was 154 ± 4.1 µg·h/mL and the “increase of brain penetration / accumulation relative to wild-type” value ([2]; Bcrp1/Mdr1ab knockout mice, i.v. 50 mg/kg) was 50%. For the same compound, the “AUC0-7 h, brain” value [2, 5] was 44.78 ± 1.88^1 μg/g · h, the T½plasma [2, 5] was 0.719 ± 0.017^ns h and the “AUC0-7 h, brain” value [2, 6] was 56.46 ± 1.17^1,2,3 μg/g · h. The T½plasma [2, 6] was 0.705 ± 0.014^ns h, the AUC(0-t) ([2]; FVB, mouse, plasma, iv, Bcrp1 knockout mice, i.v. 50 mg/kg) was 63000 ± 2140 ng·h/mL and the AUC(0-t) ([2]; FVB, mouse, plasma, iv, Bcrp, Mdr1ab knockout mice, i.v. 50 mg/kg) was 64500 ± 1290 ng·h/mL. The AUC(0-t) ([2]; FVB, mouse, plasma, iv, Mdr1ab knockout mice, i.v. 50 mg/kg) was 62200 ± 2050 ng·h/mL, the AUC(0-t) ([2]; FVB, mouse, plasma, iv, Wild-type mice, i.v. 50 mg/kg) was 65400 ± 2000 ng·h/mL and the half-life ([2]; FVB, mouse, plasma, iv, mice, i.v. 50 mg/kg, read-out: plasma half-life, first-order elimination (converted)) was 42 min. The “AUC0-7 h, brain” value [2, 7] was 44.51 ± 1.56^1 μg/g · h, the T½plasma [2, 7] was 0.757 ± 0.021^ns h and the “AUC0-7 h, brain” value ([2]; Wild-type mice, i.v. 50 mg/kg) was 37.73 ± 1.11 µg·h/g. For the same compound, the T½plasma ([2]; Wild-type mice, i.v. 50 mg/kg) was 0.689 ± 0.019 h, the “enhancement of the brain penetration” value ([2]; absence of both P-gp and Bcrp1 versus wild-type) was 1.5 fold and the “dose recovered in the acceptor compartment” value [3] was “at least 5%”. For the same compound, the “progression free survival compared to procarbazine” value ([4]; patients) was “significantly longer”, the “survival, radiotherapy with concomitant and adjuvant temozolomide versus radiotherapy alone” value ([4]; phase III trial) was “significant survival benefit” and the objective response rate ([4]; recurrent grade 3 gliomas) was 35%. The objective response rate ([4]; recurrent grade 4 gliomas) was 8%, the “transport of temozolomide by human P-gp” value (human P-gp (MDR1)) was “very limited if any evidence for transport” and the “transport of temozolomide by human P-gp” value (human P-gp (MDR1); listed as Temozolomide) was “not readily detected”.
